Assay results reported in patent publication US11428693B2, “Method of high throughput screening of chemical compounds suppressing nucleolar hypertrophy” (Baylor College of Medicine, priority 2017, dated 2022).
Where two headings read alike, the source gives them in different places. Where a SMILES comes first, the peptide text is derived from it. The star is where a group is joined. Cbz = O=C(OCc1ccccc1)*

Columns and labels:
[1] = test system: HCT-15 cells; assay: GFP-L7a expression in treated HCT-15 cells (FIG. 8); type: cell-based, human
Excerpt: FIG. 8 contains pictures of cells. HCT-15 cells, grown on 35 mm glass bottom dishes, were transfected with the GFP-L7a vector pCMV6-AC-GFP to express GFP-L7a protein.

[2] = test system: HCT-15 cells
Experimental: (§1) To further assess protein biosynthesis in the perinuclear area and ribosome biogenesis, several chemical agents were tested on cellular growth and survival.
(§2) All the tested compounds were dissolved in dimethylsulfoxide (DMSO).
(§3) The human colorectal adenocarcinoma cell lines: HCT-15 was purchased from ATCC. Cultures of cells maintained in DMEM/F12 medium containing 10% FBS and antibiotics, at 37° C. with 5% CO2. For cell treatments, cells were grown at 80% confluence in complete medium.

[3] = test system: HCT-15 cells; assay: Cell survival assay using MTT (toxicity study, FIG. 7); conditions: for toxicity (cell survival, MTT): at the applied concentrations, compounds dissolved in DMSO; for cellular proliferation: prolonged 24-hour treatments
Experimental: as §1, §2, §3

[4] = HCT-15 cells transfected with GFP-L7a vector pCMV6-AC-GFP

| SMILES | nucleolar hypertrophy (GFP-L7a) [1, 4] | perinuclear protein synthesis (GFP-L7a) [1, 4] | toxicity (cell survival, MTT) [2] | toxicity (cell survival, MTT) [3] | cellular proliferation [3] | perinuclear protein synthesis (GFP-L7a) [1] |
| --- | --- | --- | --- | --- | --- | --- |
| O=C1Nc2cc(Br)ccc2/C1=C1/Nc2ccccc2/C1=N\O [Bio, (2′Z,3′E)-6-Bromoindirubin-3′-oxime] | induced | induced | more toxic than the other compounds | – | – | – |
| COC1=C2C[C@@H](C)C[C@H](OC)[C@H](O)[C@@H](C)/C=C(\C)[C@H](OC(N)=O)[C@@H](OC)/C=C\C=C(/C)C(=O)NC(=CC1=O)C2=O [Geldanamycin, (4E,6Z,8S,9S,10E,12S,13R,14S,16R)-13-hydroxy-8,14,19-trimethoxy-4,10,12,16-tetramethyl-3,20,22-trioxo-2-azabicyclo[16.3.1]docosa-1(21),4,6,10,18-pentaen-9-yl carbamate] | induced | induced | – | no toxicity | inhibited cellular proliferation | – |
| CC(C)C[C@@H](C=O)NC(=O)[C@H](CC(C)C)NC(=O)[C@H](CC(C)C)NC(=O)OCc1ccccc1 [MG132, Benzyl N-[(2S)-4-methyl-1-[[(2S)-4-methyl-1-[[(2S)-4-methyl-1-oxopentan-2-yl]amino]-1-oxopentan-2-yl]amino]-1-oxopentan-2-yl]carbamate] (Cbz-Leu-Leu-Leu-aldehyde) | induced | induced | – | no toxicity | inhibited cellular proliferation | – |
| CCc1cncnc1N1CCN(Cc2nc3cc(C(F)(F)F)ccc3[nH]2)CC1 [PF4708671, 2-((4-(5-Ethylpyrimidin-4-yl)piperazin-1-yl)methyl)-5-(trifluoromethyl)-1H-benzo[d]imidazole] | induced | induced | – | no toxicity | – | – |
| C=C(C)[C@H]1Cc2c(ccc3c2O[C@@H]2COc4cc(OC)c(OC)cc4[C@@H]2C3=O)O1 [Rotenone, (2R,6aS,12a5)-1,2,6,6a,12,12a-hexahydro-2-isopropenyl-8,9-dimethoxychromeno[3,4-b]furo(2,3-h)chromen-6-one] | induced | induced | no toxicity | – | inhibited cellular proliferation | – |
| CC(C)n1nc(-c2cc3cc(O)ccc3[nH]2)c2c(N)ncnc21 [pp242, 2-(4-amino-1-isopropyl-1H-pyrazolo[3,4-d]pyrimidin-3-yl)-1H-indol-5-ol] | – | – | no toxicity | – | – | induced |
